Here are results for 15 molecules from ChEMBL document CHEMBL1201862, “PubChem BioAssay data set” (2004).

Among the test systems are A549; TK-10; RXF 393; NCI-H522; EKVX; SK-OV-3; U-251; 786-0; UO-31; SK-MEL-28; SNB-19; OVCAR-8; HCT-15; A498; KM12; SNB-75.
Common to all, as to assay: inhibition of tumour cell growth, NCI panel, 48 h

The structures appear in SMILES notation.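 These data come from cells grown in 96-well plates and exposed to compound for 48 hours at five concentrations. Here, GI50 denotes the concentration required for 50% inhibition of growth.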 Activity calls are given as the source filed them. Cut-off read from the data, not from the text of the source: active = GI50 up to about 1.1 µM and inactive = higher.

`CC1=NN(C(=O)c2ccc(Cl)cc2)C(=O)/C1=C/c1cccc([N+](=O)[O-])c1`: the GI50 with A549, in the assay with TK-10, in the assay with RXF 393, in the assay on NCI-H522, with EKVX and in the assay on SK-OV-3 was > 100 µM (inactive) throughout. The GI50 in the assay on U-251, in the assay with 786-0, with UO-31, in the assay on SK-MEL-28, with SNB-19 and in the assay with OVCAR-8 was > 100 µM (inactive) in each case. The values for the GI50 with HCT-15, with A498 and with KM12 were more than 100 µM, > 100 µM (inactive) and > 100 µM (inactive), respectively.

Consider `COc1nc(N)c(NC(C)=O)c(=O)n1C`, for which the GI50 in the assay on A549, with TK-10, with RXF 393, in the assay with EKVX, with U-251 and with SNB-75 was > 100 µM (inactive) in each case. Further, the GI50 was > 100 µM (inactive) with UO-31; > 100 µM (inactive) in the assay on SK-MEL-28; > 100 µM (inactive) in the assay on SNB-19; > 100 µM (inactive) with OVCAR-8; more than 100 µM in the assay on HCT-15; > 100 µM (inactive) with A498. Further, in the assay on KM12, the GI50 is > 100 µM (inactive).

On to `COc1ccc(S(=O)(=O)c2ccccc2[N+](=O)[O-])cc1`, for which the GI50 with A549 was > 100 µM (inactive); in the assay on TK-10, > 100 µM (inactive); in the assay on RXF 393 it was 55.6 µM (inactive); with EKVX, > 100 µM (inactive); in the assay on SK-OV-3 it was > 100 µM (inactive); in the assay on U-251, 82.6 µM (inactive). For the same molecule, the GI50 is 21.9 µM (inactive) in the assay with SNB-75; 78 µM (inactive) with UO-31; 53.5 µM (inactive) in the assay on SK-MEL-28; > 100 µM (inactive) with SNB-19; > 100 µM (inactive) in the assay on OVCAR-8; more than 100 µM with HCT-15. The GI50 with A498 and in the assay on KM12 was > 100 µM (inactive) in each case.

As for `Cc1ccc(Oc2ccc(C)cc2[N+](=O)[O-])cc1`, the GI50 in the assay with A549 was 92.9 µM (inactive); in the assay with TK-10, > 100 µM (inactive); with RXF 393 it was 26.5 µM (inactive); in the assay on EKVX, 48.3 µM (inactive); in the assay on SK-OV-3, > 100 µM (inactive); in the assay with U-251, 25.8 µM (inactive). Also, the GI50 with SNB-75 was 22.9 µM (inactive); in the assay with UO-31, 29.2 µM (inactive); with SK-MEL-28, 65.6 µM (inactive); in the assay on OVCAR-8 it was > 100 µM (inactive); in the assay with HCT-15, 63.8 µM; in the assay on A498, > 100 µM (inactive). Also, the GI50 in the assay on KM12 was > 100 µM (inactive).

`CCOC(=O)/C(C#N)=C(N)/C(=N\Nc1cccc(C(F)(F)F)c1)C(=O)OCC`: the GI50 in the assay with A549, in the assay on TK-10, with NCI-H522, with EKVX, in the assay with SK-OV-3 and with U-251 was > 100 µM (inactive) each time. The GI50 in the assay on 786-0, in the assay with SNB-75, in the assay with UO-31, in the assay on SK-MEL-28, with SNB-19 and with OVCAR-8 was > 100 µM (inactive) in each case. Moreover, the GI50 in the assay with HCT-15 was more than 100 µM; in the assay on A498, > 100 µM (inactive).

For the molecule `CC(=O)Nc1ccc(-c2nnc(SCC(=O)Nc3ccccc3)o2)cc1`, the GI50 was > 100 µM (inactive) with A549; > 100 µM (inactive) with TK-10; 89.9 µM (inactive) in the assay on RXF 393; 60.3 µM (inactive) in the assay on NCI-H522; > 100 µM (inactive) in the assay on SK-OV-3; 43.7 µM (inactive) in the assay on U-251. For the same molecule, the GI50 in the assay with 786-0 was > 100 µM (inactive); with SNB-75 it was > 100 µM (inactive); with UO-31, 79.6 µM (inactive); in the assay on SK-MEL-28, > 100 µM (inactive); with OVCAR-8, > 100 µM (inactive); with HCT-15, 92 µM. Besides, in the assay on KM12, the GI50 is 65 µM (inactive).

For `COC(=O)C1CC2(c3ccccc3)C(=O)c3ccccc3N2O1` (configuration not stated), the GI50 in the assay with A549 is > 100 µM (inactive); in the assay on TK-10, > 100 µM (inactive); in the assay with NCI-H522, 15.5 µM (inactive); with EKVX, > 100 µM (inactive); in the assay with SK-OV-3, > 100 µM (inactive); with U-251 it was 69.2 µM (inactive). The GI50 was 35.4 µM (inactive) in the assay on 786-0; 40.5 µM (inactive) with SNB-75; 91.8 µM (inactive) in the assay with SK-MEL-28; > 100 µM (inactive) in the assay with SNB-19; 41.9 µM (inactive) in the assay on OVCAR-8; 43.1 µM with HCT-15. The GI50 is > 100 µM (inactive) in the assay on A498 and 72.4 µM (inactive) in the assay on KM12.

`COc1ccc(-c2cc(N3CCN(c4ccc(Cl)cc4)CC3)c(C#N)c(=O)o2)cc1`: the GI50 with A549 was 10.1 µM (inactive); in the assay on TK-10, 16.5 µM (inactive); in the assay with RXF 393, 5.12 µM (inactive); with EKVX it was 11.4 µM (inactive); in the assay on U-251 it was 21.2 µM (inactive); in the assay on SNB-75, 3.25 µM (inactive). Besides, the GI50 with UO-31 was 4.79 µM (inactive); in the assay on SK-MEL-28 it was 6.9 µM (inactive); in the assay with SNB-19, 2.93 µM (inactive); with OVCAR-8 it was 5.28 µM (inactive); in the assay on HCT-15 it was 40.7 µM; with A498, 16.4 µM (inactive). Besides, the GI50 with KM12 is > 100 µM (inactive).

In the case of `COc1ccc(C(=O)C(C(=O)C(=O)NCCCNC(=O)C(=O)C(C(=O)c2ccc(OC)cc2)c2ccc(OC)cc2)c2ccc(OC)cc2)cc1` (configuration not stated), the GI50 in the assay with A549, in the assay on TK-10, in the assay with NCI-H522, in the assay on EKVX, with SK-OV-3 and in the assay on U-251 was > 100 µM (inactive) each time. Also, the GI50 in the assay on 786-0, with SNB-75, in the assay with UO-31, with SK-MEL-28, in the assay with SNB-19 and in the assay with OVCAR-8 was > 100 µM (inactive) each time. Besides, the GI50 was more than 100 µM in the assay with HCT-15 and > 100 µM (inactive) in the assay with KM12.

In the case of `COC1(OC)CCC2(C)OC(c3ccccc3)C1O2` (configuration not stated), the GI50 in the assay on A549, in the assay on TK-10, with RXF 393, in the assay with NCI-H522, with EKVX and in the assay on SK-OV-3 was > 100 µM (inactive) throughout. Moreover, the GI50 in the assay with U-251, in the assay with 786-0, with SNB-75, with UO-31, in the assay on SK-MEL-28 and in the assay on SNB-19 was > 100 µM (inactive) in each case. The GI50 was > 100 µM (inactive) with OVCAR-8, more than 100 µM in the assay with HCT-15 and > 100 µM (inactive) in the assay with KM12.

As for `COC(=O)Cc1cc(=O)n2c([nH]c3ccccc32)c1C#N`, the GI50 with A549 was > 100 µM (inactive); in the assay with TK-10, > 100 µM (inactive); in the assay on RXF 393 it was 97.3 µM (inactive); in the assay on EKVX, > 100 µM (inactive); with SK-OV-3 it was 36.1 µM (inactive); in the assay with U-251, 49.3 µM (inactive). Besides, the GI50 was > 100 µM (inactive) with 786-0; 0.42 µM (active) with SNB-75; 61 µM (inactive) in the assay with UO-31; > 100 µM (inactive) in the assay on SK-MEL-28; > 100 µM (inactive) in the assay on SNB-19; > 100 µM (inactive) in the assay on OVCAR-8. Besides, the GI50 in the assay on HCT-15 is more than 100 µM; with A498, > 100 µM (inactive); with KM12, > 100 µM (inactive).

In the case of `Cc1cc(Cl)ccc1NC(=O)CCCC(=O)C(C(=O)c1ccccc1)c1ccccc1` (configuration not stated), the GI50 is > 100 µM (inactive) with NCI-H522; > 100 µM (inactive) in the assay with SK-OV-3; > 100 µM (inactive) in the assay with U-251; > 100 µM (inactive) with 786-0; more than 100 µM in the assay with HCT-15; > 100 µM (inactive) in the assay on A498. Also, in the assay on KM12, the GI50 was > 100 µM (inactive).

Consider `COc1ccc(CCNCc2cccc(OC)c2OC)cc1OC`, for which the GI50 in the assay with A549, in the assay with TK-10, in the assay on RXF 393, in the assay with NCI-H522, in the assay on EKVX and with SK-OV-3 was > 100 µM (inactive) each time. For the same molecule, the GI50 in the assay on 786-0, in the assay on SNB-75, in the assay on UO-31, in the assay on SK-MEL-28, with SNB-19 and in the assay with OVCAR-8 was > 100 µM (inactive) in each case. Further, the GI50 with HCT-15 is more than 100 µM; with KM12, > 100 µM (inactive).

As to `COC(=O)[C@]1(C)CCCC2(C)C1CC[C@H]1C=C(C)[C@H]3CCC12C3` (some centres not stated), the GI50 was > 100 µM (inactive) in the assay with A549; > 100 µM (inactive) in the assay with TK-10; 55.3 µM (inactive) in the assay with RXF 393; 45 µM (inactive) in the assay with NCI-H522; > 100 µM (inactive) in the assay with SK-OV-3; > 100 µM (inactive) with U-251. Besides, the GI50 in the assay on 786-0, in the assay with SNB-75, in the assay on UO-31, in the assay with SK-MEL-28, in the assay on SNB-19 and in the assay on OVCAR-8 was > 100 µM (inactive) each time. For the same molecule, the GI50 was more than 100 µM in the assay on HCT-15 and > 100 µM (inactive) in the assay on KM12.

For `Cc1nc(-n2nc(-c3ccccc3)cc2-c2ccccc2)sc1C(=O)/C=C/c1ccc(Cl)c(Cl)c1`, the GI50 is 25.6 µM (inactive) in the assay with A549; 43.2 µM (inactive) in the assay on TK-10; 28.1 µM (inactive) in the assay on RXF 393; 10 µM (inactive) in the assay with NCI-H522; 27 µM (inactive) in the assay on EKVX; > 100 µM (inactive) in the assay with SK-OV-3. For the same molecule, the GI50 in the assay with U-251 is 11.6 µM (inactive); in the assay with 786-0, 15.7 µM (inactive); in the assay on UO-31 it was 10.6 µM (inactive); with SK-MEL-28, 31.3 µM (inactive); with SNB-19, 16.3 µM (inactive); in the assay on OVCAR-8 it was 14.1 µM (inactive). The values for the GI50 in the assay on HCT-15 and in the assay with KM12 were 15.9 µM and 8.67 µM (inactive), respectively.
